From patent US20080248002A1, “ANTI-ANGIOGENIC CELLULAR AGENT FOR CANCER THERAPY” (priority 1999, published 2008)

Legend:
OCI-Ly8 tumor targets = assay: BFA / TM pre-treatment of CIK targets, 51Cr release assay, OCI-Ly8 tumor targets; type: cell-based; settings: 20:1 E:T ratio
Protocol: (§1) CIK targets were treated with BFA and/or tunicamycin (TM). […] This resistance is sustained after BFA is removed from the media.

[1] = system: lymphoblastoid target AMK; assay: BFA / TM pre-treatment of CIK targets, 51Cr release assay, lymphoblastoid target AMK; type: cell-based; settings: target pre-treatment (TM 22 hr), 20:1 E:T ratio
Protocol: as §1

EC targets = assay: BFA / conA treatment of CIK effector cells, lysis of EC targets; type: cell-based, human; settings: day 21 CIK effector cells pre-incubated 2 hours with 1 μM BFA or 0.1 μM conA
Protocol: (§2) Brefeldin A (BFA) blocks the transport of FasL from intracellular stores to the cell surface (Lippincott-Schwartz et al. (1989) Cell 56:801; Lippincott-Schwartz et al. (1990) Cell 60:821; and Orci et al. (1991) Cell 64:1183). […] BFA was dissolved at 100 μg/ml in 70% ethanol and used fresh or stored up to 4 weeks at −20° C. Prior to cytotoxicity assays, the cells were rinsed three times with PBS and BFA-free fresh medium was added.
(§3) Concanamycin A (conA) depletes perforin contained in cytotoxic T-cell granules (Kataoka et al. (1996) J. Immunol. 156:3678; Ohminami et al. (1999) Blood 93:925). 15 ConA-treated effector cells were used in cytotoxicity assays to approximate the fractional contribution of the perforin/granzyme pathway to the total CIK cell mediated cytotoxicity.
(§4) Louis, Mo.). The cells were then incubated for 2 hours at 37° C. in a humidified atmosphere of 5% CO2.
(§5) BFA treatment of effector cells and the associated block of FasL transport reduced CIK lysis of the tumor target OCI-Ly8 by 33%, but had no effect on the lysis of EC targets (FIG. 4).

EC = assay: BFA pre-treatment of CIK targets, 51Cr release assay, EC; type: cell-based; settings: targets pre-treated with 10 μM BFA, 20:1 E:T ratio
Protocol: as §1

OCI-Ly8 = assay: BFA / conA treatment of CIK effector cells, lysis of OCI-Ly8; type: cell-based; settings: day 21 CIK effector cells pre-incubated 2 hours with 1 μM BFA or 0.1 μM conA
Protocol: as §2, §3, §4, §5

tunicamycin [TM]
effect of target pre-treatment on CIK killing of tumor targets (OCI-Ly8 tumor targets): Neither TM or TM and BFA together altered CIK mediated lysis
effect of target pre-treatment on CIK killing of lymphoblastoid targets [1]: rendered susceptible

C[C@H]1CCC/C=C/[C@@H]2C[C@H](O)C[C@H]2[C@H](O)/C=C/C(=O)O1 [BFA, Brefeldin A]
effect on CIK lysis of EC targets (EC targets): no effect
effect of target pre-treatment on CIK killing of tumor targets (OCI-Ly8 tumor targets): did not reduce killing
effect of target pre-treatment on CIK killing of lymphoblastoid targets [1]: did not reduce killing
protection of EC from CIK mediated lysis (EC): complete protection
reduction of CIK lysis of OCI-Ly8 (OCI-Ly8): 33%

C/C=C/[C@H]1O[C@@](O)([C@@H](C)[C@H](O)[C@H](C)[C@H]2OC(=O)/C(OC)=C/C(C)=C/[C@@H](C)[C@@H](O)[C@@H](CC)[C@@H](O)[C@H](C)C/C(C)=C/C=C/[C@@H]2OC)C[C@@H](O[C@H]2C[C@@H](O)[C@H](OC(N)=O)[C@@H](C)O2)[C@@H]1C [Con A, Concanamycin A]
effect on CIK lysis of EC targets (EC targets): completely abolished EC lysis
reduction of CIK lysis of OCI-Ly8 (OCI-Ly8): 66%
